Laboratory results: article PMC5951806, “Rapid labelling and covalent inhibition of intracellular native proteins using ligand-directed N-acyl-N-alkyl sulfonamide” (Nature Communications, 2018)

Tests used:
Test in all cases: TMT LC-MSMS of 11-labelled proteins
[1] = target: Actin, cytoplasmic 1 (ACTB) (Homo sapiens, UniProt P60709); format: cell-based
[2] = target: Multidrug resistance-associated protein 5 (ABCC5) (Homo sapiens, UniProt O15440); format: cell-based
[3] = system: immunoglobulin gamma-1 heavy chain; format: cell-based, Homo sapiens
Source text: Supplement 41467_2018_4343_MOESM4_ESM.xlsx, sheet "Exp3" | column: Abundance Ratio: (11) / (11 with PU-H71); Abundance Ratio: (11) / (DMSO); Abundances (Grouped): 11; Abundances (Grouped): 11 with PU-H71

[4] = sheet Exp1, SKBR3 cells, 11 0.5 µM 3 h vs DMSO
[5] = sheet Exp1, SKBR3 cells, 11 0.5 µM 3 h vs with PU-H71 10 µM
[6] = sheet Merged, SKBR3 cells, 11 0.5 µM 3 h vs DMSO
[7] = sheet Merged, SKBR3 cells, 11 0.5 µM 3 h vs with PU-H71 10 µM

Sequence of Multidrug resistance-associated protein 5 (ABCC5) (O15440 whole entry): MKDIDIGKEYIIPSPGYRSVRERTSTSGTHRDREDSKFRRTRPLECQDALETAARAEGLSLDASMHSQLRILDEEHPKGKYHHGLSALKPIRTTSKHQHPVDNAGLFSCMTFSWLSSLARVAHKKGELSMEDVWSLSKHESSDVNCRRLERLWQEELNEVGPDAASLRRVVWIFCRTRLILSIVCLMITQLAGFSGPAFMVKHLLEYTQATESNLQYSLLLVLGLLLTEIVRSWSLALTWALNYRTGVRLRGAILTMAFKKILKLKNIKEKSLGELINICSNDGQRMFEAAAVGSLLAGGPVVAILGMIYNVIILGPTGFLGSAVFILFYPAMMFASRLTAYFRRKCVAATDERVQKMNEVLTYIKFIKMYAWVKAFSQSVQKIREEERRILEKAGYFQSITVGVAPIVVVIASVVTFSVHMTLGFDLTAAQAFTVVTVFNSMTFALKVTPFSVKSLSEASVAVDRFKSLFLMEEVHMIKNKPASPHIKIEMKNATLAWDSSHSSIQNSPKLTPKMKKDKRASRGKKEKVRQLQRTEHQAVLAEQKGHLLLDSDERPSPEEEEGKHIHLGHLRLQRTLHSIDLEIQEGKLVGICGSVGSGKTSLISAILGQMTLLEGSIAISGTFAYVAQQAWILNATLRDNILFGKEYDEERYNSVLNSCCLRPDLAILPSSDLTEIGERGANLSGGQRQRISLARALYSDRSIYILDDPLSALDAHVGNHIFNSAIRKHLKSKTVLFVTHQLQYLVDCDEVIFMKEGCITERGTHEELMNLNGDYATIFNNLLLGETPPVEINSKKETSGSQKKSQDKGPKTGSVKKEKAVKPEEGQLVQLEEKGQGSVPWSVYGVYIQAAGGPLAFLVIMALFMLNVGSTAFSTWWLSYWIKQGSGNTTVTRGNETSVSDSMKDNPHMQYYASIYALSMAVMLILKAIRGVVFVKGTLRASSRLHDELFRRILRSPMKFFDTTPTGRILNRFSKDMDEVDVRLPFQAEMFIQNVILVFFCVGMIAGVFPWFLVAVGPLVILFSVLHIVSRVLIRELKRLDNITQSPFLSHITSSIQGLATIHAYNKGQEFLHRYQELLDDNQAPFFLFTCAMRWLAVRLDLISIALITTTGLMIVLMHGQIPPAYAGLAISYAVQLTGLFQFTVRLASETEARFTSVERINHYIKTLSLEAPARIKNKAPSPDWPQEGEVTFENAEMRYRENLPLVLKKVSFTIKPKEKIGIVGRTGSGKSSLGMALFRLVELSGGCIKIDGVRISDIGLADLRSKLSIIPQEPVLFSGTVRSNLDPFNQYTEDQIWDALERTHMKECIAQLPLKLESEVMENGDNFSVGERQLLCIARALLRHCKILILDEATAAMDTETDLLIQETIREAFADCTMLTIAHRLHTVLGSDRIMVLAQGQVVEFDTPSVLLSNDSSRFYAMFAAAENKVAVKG

Abundance Ratio: (11) / (11 with PU-H71) ([1]; Exp3, ACTB): 0.843
Abundance Ratio: (11) / (DMSO) ([1]; Exp3, ACTB): 2.666
Abundances (Grouped): 11 ([1]; Exp3, ACTB): 445.7
Abundances (Grouped): 11 with PU-H71 ([1]; Exp3, ACTB): 528.9
Abundance Ratio: (11) / (DMSO) [1, 4]: 3.266
Abundance Ratio: (11) / (11 with PU-H71) [1, 5]: 0.822
Abundance Ratio: (11) / (11 with PU-H71) ([1]; sheet Exp2, ACTB): 0.825
Abundance Ratio: (11) / (DMSO) ([1]; sheet Exp2, ACTB): 3.623
Abundances (Grouped): 11 ([1]; sheet Exp2, ACTB): 493.5
Abundances (Grouped): 11 with PU-H71 ([1]; sheet Exp2, ACTB): 598.3
Abundance Ratio: (11) / (DMSO) [1, 6]: 3.272
Abundance Ratio: (11) / (11 with PU-H71) [1, 7]: 0.843
Abundance Ratio: (11) / (11 with PU-H71) ([2]; Exp3, ABCC5): 0.868
Abundance Ratio: (11) / (DMSO) ([2]; Exp3, ABCC5): 4.007
Abundances (Grouped): 11 ([2]; Exp3, ABCC5): 227.2
Abundances (Grouped): 11 with PU-H71 ([2]; Exp3, ABCC5): 261.9
Abundance Ratio: (11) / (DMSO) [2, 4]: 1.935
Abundance Ratio: (11) / (11 with PU-H71) [2, 5]: 1.002
Abundance Ratio: (11) / (11 with PU-H71) ([2]; sheet Exp2, ABCC5): 0.947
Abundance Ratio: (11) / (DMSO) ([2]; sheet Exp2, ABCC5): 2.92
Abundances (Grouped): 11 ([2]; sheet Exp2, ABCC5): 189.2
Abundances (Grouped): 11 with PU-H71 ([2]; sheet Exp2, ABCC5): 199.7
Abundance Ratio: (11) / (DMSO) [2, 6]: 3.871
Abundance Ratio: (11) / (11 with PU-H71) [2, 7]: 0.868
Compound: CC(=O)Oc1ccc2c(c1)Oc1cc(OC(C)=O)ccc1C21OC(=O)c2cc(C(=O)NCCOCCOCCNC(=O)CCCC(=O)N(CC#N)S(=O)(=O)c3ccc(C(=O)NCCCn4c(Sc5cc6c(cc5I)OCO6)nc5c(N)ncnc54)cc3)ccc21 [compound 11]
Abundance Ratio: (11) / (11 with PU-H71) ([3]; Exp3): 0.809
Abundance Ratio: (11) / (DMSO) ([3]; Exp3): 0.806
Abundances (Grouped): 11 ([3]; Exp3): 6402
Abundances (Grouped): 11 with PU-H71 ([3]; Exp3, with PU-H71): 7910.4
